These results are taken from patent US7485327B2, “Composition comprising Melissa leaf extract for anti-angiogenic and matrix metalloproteinase inhibitory activity” (AngioLab, Inc., priority 2001, dated 2009).

The test system of the experiment is B16BL6 cells. As to the kind of experiment: Cancer metastasis: B16BL6 melanoma colonies in lung. It is filed as in vivo, C57BL/6 male mouse. On the procedure: B16BL6 cells (5×10^4) were injected into C57BL/6 male mouse of 6 to 7 weeks old through the tail vein. After that, 0.2 ml of water or drug combinations was daily given to mice by oral administration for 3 weeks. Three weeks after injection, the mice were sacrificed and the number of tumor colonies on the surface of lungs was counted under microscope. The average number of melanoma colonies in lungs from mice of treated group was less than that from control mice.

Regarding `Clc1ccccc1CN1CCc2sccc2C1` [Ticlopidine, ticlopidine], the “Inhibition (%) of metastasis” value (oral daily for 3 weeks) is given as 38%. The Colonies in lung (oral daily for 3 weeks after tail vein injection of B16BL6 cells) was 83 ± 20.
